Test results reported in BindingDB's records for doi:10.1021/acs.jmedchem.8b01908 (Chinese Academy of Sciences, 2019).
pIC50: −log10 of the molar value. Positions of bridges follow the written chain, without caps; N, C: chain ends. Residues, ends and D or L forms follow the SMILES beside them.

Test: Inhibition of the intrinsic peri-cellular uPA in mouse CT26 cells assessed as reduction in cell invasion measured every hour by transwell assay

Structure (SMILES) | pIC50
CC[C@H](C)[C@@H]1NC(=O)[C@H](Cc2ccc(O)cc2)NC(=O)[C@H](CCCNC(=N)N)NC(=O)[C@H](CO)NC(=O)[C@H](Cc2ccc(O)cc2)NC(=O)[C@H](C)NC(=O)[C@@H]2CCCN2C(=O)[C@@H](NC(C)=O)CSSC[C@@H](C(N)=O)NC(=O)CNC1=O (Ac-CPAYSRYIGC-NH2; disulfide 1-10) | 5.30
CC(=O)N[C@H]1CSSC[C@@H](C(N)=O)NC(=O)[C@H](CC(=O)O)NC(=O)[C@H](CC(C)C)NC(=O)[C@H](Cc2ccc(O)cc2)NC(=O)[C@H](CCCNC(=N)N)NC(=O)[C@H](CO)NC(=O)[C@H](Cc2ccc(O)cc2)NC(=O)[C@H](C)NC(=O)[C@@H]2CCCN2C1=O (Ac-CPAYSRYLDC-NH2; disulfide 1-10) | 4.40
CC[C@H](C)[C@@H]1NC(=O)[C@H](Cc2ccc(O)cc2)NC(=O)[C@H](CCCNC(=N)N)NC(=O)[C@H](CO)NC(=O)[C@H](Cc2ccc(O)cc2)NC(=O)[C@H](C)NC(=O)[C@@H]2CCCN2C(=O)[C@@H](N)CSSC[C@@H](C(=O)O)NC(=O)CNC1=O (H-CPAYSRYIGC-OH; disulfide 1-10) | 5.48
